Literature values as cited in patent US20250234859A1, “AQUEOUS SUSPENSION AGROCHEMICAL COMPOSITION, DISEASE CONTROL METHOD, AND USEFUL PLANT SEEDS” (KUMIAI CHEMICAL INDUSTRY CO., LTD., priority 2021, published 2025).

Tested on: rice blast, glume blotch, cucumber downy mildew, and cucumber anthracnose
Conditions: diseases such as rice blast, Patent Document 3

Compound: O=S1(=O)N=C(OCc2snc(Cl)c2Cl)c2ccccc21 [dichlobentiazox, 3-(3,4-dichloroisothiazol-5-ylmethoxy)-1,2-benzothiazole-1,1-dioxide]
- effect on plant diseases: remarkable effect
